We go through 24 molecules from patent US9464084B2, “P2X7 modulators” (Janssen Pharmaceutica NV, priority 2013, dated 2016).

What all share (assay type): cell-based
One assay concerns the target rat P2X7 (Rattus norvegicus (Rat), UniProt Q64663). Briefly: Ca2+ flux (FLIPR) in 1321N1 cells expressing recombinant rat P2X7 channel.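 Further: Calcium-4 dye fluorescence change read 180 s after agonist addition, following 30 min cell preincubation with test compound.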 The note with it: 250 μM BzATP.
Assay [1] concerns the target T1, P2X7 (Homo sapiens (Human), UniProt Q99572). Briefly: P2X7 antagonism in human PBMCs (LPS + Bz-ATP induced IL-1β release, ELISA).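 On all read-outs here: PBMCs from donor human blood, with a further 1.5 h incubation of the cells in the assay.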 The conditions noted are these: LPS 30 ng/ml, Bz-ATP 0.5 mM; for PBMC 10 μM (% control): compound 10 μM; for PBMC 1 μM (% control): compound 1 μM. In general terms: An ELISA detects its analyte on a solid surface through an enzyme-linked reagent.
Protocol: Human blood was collected using a blood donor program. PBMCs were isolated from blood using a Ficoll density gradient technique. Briefly, blood was laid on Ficoll solution and centrifuged at RT for 20 minutes at 2000 rpm. The buffy layer (between red blood cells and plasma) was carefully collected by aspiration, washed with PBS and centrifuged again at 1500 rpm for 15 minutes. The resulting cell pellet was washed and plated on 96 well-plates for experiments. For the Mouse/Human Whole Blood experiments, 150 μl of either mouse or human blood was platted on 96 well-plates. Lipopolysaccharide (LPS) (30 ng/ml) was added to each well and incubated for 1 hour. Test compounds were then added and incubated for 30 minutes. The P2X7 agonist, 2′(3′)-O-(4-benzoylbenzoyl) adenosine 5′ triphosphate (Bz-ATP) was then added at a final concentration of 0.5 mM (PBMC) or 1 mM (blood). Cells were incubated for an additional 1.5 hours. At that point, supernatant was collected and stored for IL-1β assay using manufacturer's protocol for enzyme-linked immunosorbent assay (ELISA). Data was expressed as percent control, where control is defined as the difference in IL-1β release in LPS+Bz-ATP samples and LPS only samples. Data was plotted as response (% control) versus concentration to generate IC50 values.

For assay [2], the target named is T1, P2X7. Briefly: Ca2+ flux (FLIPR) in 1321N1 cells expressing recombinant human P2X7 channel.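 Further: Calcium-4 dye-loaded cells exposed to compound for 30 min before agonist addition, fluorescence change read 180 s after agonist.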 The note with it: 250 μM BzATP. A general note: Calcium assays in cells follow changes in intracellular calcium, usually with a dye or a luminescent sensor.
Protocol: Cells were seeded at a density of 25000 cells/well (96-well clear bottom black walled plates) in 100 μl volume/well. On the day of the experiment, cell plates were washed with assay buffer, containing (in mM): 130 NaCl, 2 KCl, 1 CaCl2, 1 MgCl2, 10 HEPES, 5 glucose; pH 7.40 and 300 mOs. After the wash, cells were loaded with the Calcium-4 dye (Molecular Device) and incubated in the dark for 60 minutes. Test compounds were prepared at 250× the test concentration in neat DMSO. Intermediate 96-well compound plates were prepared by transferring 1.2 μL of the compound into 300 μL of assay buffer. A further 3× dilution occurred when transferring 50 μL/well of the compound plate to 100 μL/well in the cell plate. Cells were incubated with test compounds and dye for 30 minutes. […] The fluorescence change was measured 180 seconds after adding the agonist.

Sequence of rat P2X7 (Q64663 whole entry): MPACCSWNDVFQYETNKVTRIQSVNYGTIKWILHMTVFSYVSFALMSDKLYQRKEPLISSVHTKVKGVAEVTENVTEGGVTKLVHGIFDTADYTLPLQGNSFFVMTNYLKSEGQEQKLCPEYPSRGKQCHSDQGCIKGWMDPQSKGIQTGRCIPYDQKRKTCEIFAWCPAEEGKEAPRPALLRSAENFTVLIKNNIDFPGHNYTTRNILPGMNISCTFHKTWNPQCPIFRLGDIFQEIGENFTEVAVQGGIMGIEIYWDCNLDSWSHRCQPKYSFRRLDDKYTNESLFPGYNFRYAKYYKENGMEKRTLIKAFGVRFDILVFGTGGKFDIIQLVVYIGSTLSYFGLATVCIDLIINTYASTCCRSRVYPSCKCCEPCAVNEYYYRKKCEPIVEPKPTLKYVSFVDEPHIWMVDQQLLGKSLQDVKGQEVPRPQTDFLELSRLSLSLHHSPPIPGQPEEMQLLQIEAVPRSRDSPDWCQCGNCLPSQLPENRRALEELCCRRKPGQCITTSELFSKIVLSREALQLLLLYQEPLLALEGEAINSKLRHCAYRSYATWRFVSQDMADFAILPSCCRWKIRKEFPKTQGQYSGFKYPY
T1 sequence (Q99572 whole entry): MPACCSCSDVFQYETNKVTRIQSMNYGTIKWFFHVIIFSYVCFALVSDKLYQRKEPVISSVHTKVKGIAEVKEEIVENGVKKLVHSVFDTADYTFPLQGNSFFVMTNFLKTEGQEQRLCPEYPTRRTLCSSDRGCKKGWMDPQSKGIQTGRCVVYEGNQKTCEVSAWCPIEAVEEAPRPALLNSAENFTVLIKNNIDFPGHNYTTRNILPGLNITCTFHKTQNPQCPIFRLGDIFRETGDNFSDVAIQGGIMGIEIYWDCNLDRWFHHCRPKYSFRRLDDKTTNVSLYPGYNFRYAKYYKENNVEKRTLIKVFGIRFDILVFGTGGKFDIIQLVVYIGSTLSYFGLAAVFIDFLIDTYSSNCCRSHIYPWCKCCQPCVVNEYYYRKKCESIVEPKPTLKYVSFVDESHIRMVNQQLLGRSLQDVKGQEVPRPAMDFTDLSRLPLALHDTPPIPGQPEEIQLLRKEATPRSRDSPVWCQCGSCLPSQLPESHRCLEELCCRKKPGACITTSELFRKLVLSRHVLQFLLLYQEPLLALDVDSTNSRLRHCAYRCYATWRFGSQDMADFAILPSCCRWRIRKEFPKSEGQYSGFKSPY

The term IC50 denotes the midpoint of a concentration-inhibition curve. With `Cn1nccc1-n1nnc2c1CCN(C(=O)c1cccc(C(F)(F)F)c1Cl)C2` [Example 128, (2-Chloro-3-(trifluoromethyl)phenyl)(1-(1-methyl-1H-pyrazol-5-yl)-6,7-dihydro-1H-[1,2,3]triazolo[4,5-c]pyridin-5(4H)-yl)methanone], the IC50 is greater than 10000 nM at rat P2X7 and 2110 nM at P2X7 [2]. Further, the “PBMC 10 μM (% control)” value at P2X7 [1] came to 23.1 % control.

Consider `O=C(c1ccc(Cl)cc1F)N1CCc2c(nnn2-c2ccccn2)C1` [Example 129, (4-Chloro-2-fluorophenyl)(1-(pyridin-2-yl)-6,7-dihydro-1H-[1,2,3]triazolo[4,5-c]pyridin-5(4H)-yl)methanone], for which the 50% inhibitory concentration (IC50) stood at 3350 nM on rat P2X7 and 366 nM at P2X7 [2]. Further, the “PBMC 10 μM (% control)” value on P2X7 [1] is reported as 8.4 % control.

In the case of `Cc1c(C(=O)N2Cc3nnn(-c4cc[nH]n4)c3CC2C)cccc1C(F)(F)F` (stereo not drawn) [Example 154, (6-methyl-1-(1H-pyrazol-3-yl)-6,7-dihydro-1H-[1,2,3]triazolo[4,5-c]pyridin-5(4H)-yl)(2-methyl-3-(trifluoromethyl)phenyl)methanone], the half-maximal inhibitory concentration (IC50) stood at 10.2 nM on rat P2X7 and 16.5 nM on P2X7 [2]. Further, at P2X7 [1], the “PBMC 10 μM (% control)” value is on record as −0.6 % control.

Consider `C[C@H]1Cc2c(nnn2-c2ncc(F)cn2)CN1C(=O)c1ccc(Cl)cc1F` [Example 156, (S)-(4-chloro-2-fluorophenyl)(1-(5-fluoropyrimidin-2-yl)-6-methyl-6,7-dihydro-1H-[1,2,3]triazolo[4,5-c]pyridin-5(4H)-yl)methanone], for which the 50% inhibitory concentration (IC50) is 604 nM at rat P2X7 and 14.4 nM at P2X7 [2]. Also, the “PBMC 10 μM (% control)” value at P2X7 [1] came out at 1.8 % control.

Consider `Cc1cnc(-n2nnc3c2CCN(C(=O)c2cccc(C(F)(F)F)c2Cl)C3C)c(C)c1` (stereo not drawn) [Example 159, (2-chloro-3-(trifluoromethyl)phenyl)(1-(3,5-dimethylpyridin-2-yl)-4-methyl-6,7-dihydro-1H-[1,2,3]triazolo[4,5-c]pyridin-5(4H)-yl)methanone], for which the 50% inhibitory concentration (IC50) at rat P2X7 and at P2X7 [2] was greater than 10000 nM throughout. In addition, the “PBMC 10 μM (% control)” value on P2X7 [1] is given as 54.1 % control.

Regarding `Cc1cnc(-n2nnc3c2CCN(C(=O)c2cccc(Cl)c2Cl)C3C)c(C)c1` (stereo not drawn) [Example 160, (2,3-dichlorophenyl)(1-(3,5-dimethylpyridin-2-yl)-4-methyl-6,7-dihydro-1H-[1,2,3]triazolo[4,5-c]pyridin-5(4H)-yl)methanone], the IC50 at rat P2X7 and on P2X7 [2] was greater than 10000 nM each time. At P2X7 [1], the “PBMC 10 μM (% control)” value is recorded as 101.5 % control.

For `CC1c2nnn(-c3cncnc3)c2CCN1C(=O)c1cccc(C(F)(F)F)c1Cl` (stereo not drawn) [Example 177, (2-Chloro-3-(trifluoromethyl)phenyl)(4-methyl-1-(pyrimidin-5-yl)-6,7-dihydro-1H-[1,2,3]triazolo[4,5-c]pyridin-5(4H)-yl)methanone], the results for the IC50 at rat P2X7 and at P2X7 [2] were greater than 10000 nM and 227 nM, respectively. Besides, the “PBMC 10 μM (% control)” value at P2X7 [1] is reported as 8.6 % control.

Consider `Cc1cncc(-n2nnc3c2CCN(C(=O)c2cccc(Cl)c2Cl)C3C)n1` (stereo not drawn) [Example 180, (2,3-dichlorophenyl)(4-methyl-1-(6-methylpyrazin-2-yl)-6,7-dihydro-1H-[1,2,3]triazolo[4,5-c]pyridin-5(4H)-yl)methanone], for which the IC50 at rat P2X7 was greater than 10000 nM; at P2X7 [2], 592 nM. Further, the “PBMC 10 μM (% control)” value on P2X7 [1] is listed as −3.7 % control.

On to `Cc1cc(C)nc(-n2nnc3c2CCN(C(=O)c2cccc(Cl)c2Cl)C3C)c1` (stereo not drawn) [Example 231, (2,3-dichlorophenyl)(1-(4,6-dimethylpyridin-2-yl)-4-methyl-6,7-dihydro-1H-[1,2,3]triazolo[4,5-c]pyridin-5(4H)-yl)methanone], for which the results for the IC50 on rat P2X7 and on P2X7 [2] were 38200 nM and 499 nM, respectively. The “PBMC 10 μM (% control)” value on P2X7 [1] was −4.8 % control.

For `CC1c2nnn(-c3cncnc3)c2C=CN1C(=O)c1cccc(C(F)(F)F)c1Cl` (stereo not drawn) [Example 236, (2-Chloro-3-(trifluoromethyl)phenyl)(4-methyl-1-(pyrimidin-5-yl)-1H-[1,2,3]triazolo[4,5-c]pyridin-5(4H)-yl)methanone], the values for the IC50 at rat P2X7 and at P2X7 [2] were greater than 10000 nM and 1190 nM, respectively. The “PBMC 10 μM (% control)” value on P2X7 [1] stood at 9.3 % control.

For `CC1CN(C(=O)c2cccc(C(F)(F)F)c2Cl)C(C)c2nnn(-c3ccc(F)cc3)c21` (stereo not drawn) [Example 238, (2-Chloro-3-(trifluoromethyl)phenyl)(1-(4-fluorophenyl)-4,7-dimethyl-6,7-dihydro-1H-[1,2,3]triazolo[4,5-c]pyridin-5(4H)-yl)methanone], the values for the 50% inhibitory concentration (IC50) on rat P2X7 and at P2X7 [2] were 724 nM and 27.1 nM, respectively. Also, the “PBMC 10 μM (% control)” value on P2X7 [1] is listed as −4.1 % control.

Consider `CC1c2ncn(-c3ccc(F)cn3)c2CCN1C(=O)c1ccc(F)cc1Cl` (stereo not drawn) [Example 256, (2-chloro-4-fluorophenyl)(1-(5-fluoropyridin-2-yl)-4-methyl-6,7-dihydro-1H-imidazo[4,5-c]pyridin-5(4H)-yl)methanone], for which the IC50 at rat P2X7 was greater than 10000 nM; on P2X7 [2], 2390 nM. For the same molecule, the “PBMC 10 μM (% control)” value at P2X7 [1] came out at 7.1 % control.

Regarding `CC1c2ncn(-c3ccc(F)cn3)c2CCN1C(=O)c1ccccc1F` (stereo not drawn) [Example 264, (2-fluorophenyl)(1-(5-fluoropyridin-2-yl)-4-methyl-6,7-dihydro-1H-imidazo[4,5-c]pyridin-5(4H)-yl)methanone], the 50% inhibitory concentration (IC50) at rat P2X7 and on P2X7 [2] was greater than 10000 nM throughout. The “PBMC 10 μM (% control)” value at P2X7 [1] came out at 89.5 % control.

Regarding `CC1Cc2c(-c3ccn[nH]3)n[nH]c2CN1C(=O)c1ccc(Cl)cc1Cl` (stereo not drawn) [Example 268, (2,4-dichlorophenyl)(5-methyl-3-(1H-pyrazol-5-yl)-4,5-dihydro-1H-pyrazolo[3,4-c]pyridin-6(7H)-yl)methanone], the figures for the IC50 on rat P2X7 and at P2X7 [2] were 1220 nM and 600 nM, respectively. Moreover, the “PBMC 10 μM (% control)” value at P2X7 [1] was −59.9 % control.

Regarding `CC1c2c(nnn2-c2ccccc2)CCN1C(=O)c1cccc(C(F)(F)F)c1Cl` (stereo not drawn) [Example 289, (2-chloro-3-(trifluoromethyl)phenyl)(4-methyl-3-phenyl-6,7-dihydro-3H-[1,2,3]triazolo[4,5-c]pyridin-5(4H)-yl)methanone], the figures for the IC50 at rat P2X7 and at P2X7 [2] were 2410 nM and 1190 nM, respectively. Besides, the “PBMC 10 μM (% control)” value at P2X7 [1] is on record as −27.6 % control.

As to `CCc1cccnc1-n1nnc2c1CCN(C(=O)c1cccc(C(F)(F)F)c1)C2C` (stereo not drawn) [Example 295, (1-(3-ethylpyridin-2-yl)-4-methyl-6,7-dihydro-1H-[1,2,3]triazolo[4,5-c]pyridin-5(4H)-yl)(3-(trifluoromethyl)phenyl)methanone], the IC50 at rat P2X7 and at P2X7 [2] was greater than 10000 nM in each case. For the same molecule, the “PBMC 10 μM (% control)” value on P2X7 [1] was 10.1 % control.

Regarding `CC1c2nn(COCC[Si](C)(C)C)c(-c3ncc(F)cn3)c2CCN1C(=O)c1cccc(C(F)(F)F)c1Cl` (stereo not drawn) [Example 303, (2-chloro-3-(trifluoromethyl)phenyl)(3-(5-fluoropyrimidin-2-yl)-7-methyl-2-((2-(trimethylsilyl)ethoxy)methyl)-4,5-dihydro-2H-pyrazolo[3,4-c]pyridin-6(7H)-yl)methanone], the results for the IC50 on rat P2X7 and at P2X7 [2] were 5190 nM and 6920 nM, respectively. The “PBMC 10 μM (% control)” value at P2X7 [1] is reported as −1.6 % control.

For the molecule `C[C@H]1Cc2c(nnn2-c2ncc(F)cn2)CN1C(=O)c1cc(F)cc(C(F)(F)F)c1` [Example 307, (S)-(3-fluoro-5-(trifluoromethyl)phenyl)(1-(5-fluoropyrimidin-2-yl)-6-methyl-6,7-dihydro-1H-[1,2,3]triazolo[4,5-c]pyridin-5(4H)-yl)methanone], the IC50 at rat P2X7 was 10700 nM; on P2X7 [2] it was greater than 10000 nM. The “PBMC 10 μM (% control)” value at P2X7 [1] is recorded as 2.2 % control.

For the molecule `CC1c2[nH]nc(C(F)(F)F)c2CCN1C(=O)c1cccc(C(F)(F)F)c1Cl` (stereo not drawn) [Example 308, (2-chloro-3-(trifluoromethyl)phenyl)(7-methyl-3-(trifluoromethyl)-4,5-dihydro-1H-pyrazolo[3,4-c]pyridin-6(7H)-yl)methanone], the IC50 on rat P2X7 and on P2X7 [2] was greater than 10000 nM in each case. For the same molecule, the “PBMC 10 μM (% control)” value at P2X7 [1] was determined as 22.9 % control.

Consider `O=C(c1cccc(C(F)(F)F)c1F)N1CCc2c(ncn2-c2ccc(F)cn2)C1` [Example 314, (2-fluoro-3-(trifluoromethyl)phenyl)(1-(5-fluoropyridin-2-yl)-6,7-dihydro-1H-imidazo[4,5-c]pyridin-5(4H)-yl)methanone], for which the 50% inhibitory concentration (IC50) is greater than 10000 nM on rat P2X7 and 2830 nM at P2X7 [2]. Moreover, on P2X7 [1], the “PBMC 10 μM (% control)” value is listed as 18.7 % control.

Regarding `Cn1nc2c(c1-c1ccncc1)CCN(C(=O)c1cccc(C(F)(F)F)c1Cl)C2` [Example 327, (2-chloro-3-(trifluoromethyl)phenyl)(2-methyl-3-(pyridin-4-yl)-4,5-dihydro-2H-pyrazolo[3,4-c]pyridin-6(7H)-yl)methanone], the IC50 on rat P2X7 and at P2X7 [2] was greater than 10000 nM in each case. Further, on P2X7 [1], the “PBMC 1 μM (% control)” value stood at 93.1 % control.

Regarding `Cn1nc2c(c1-c1ccncc1)CCN(C(=O)c1cccc(Cl)c1Cl)C2` [Example 328, (2,3-dichlorophenyl)(2-methyl-3-(pyridin-4-yl)-4,5-dihydro-2H-pyrazolo[3,4-c]pyridin-6(7H)-yl)methanone], the 50% inhibitory concentration (IC50) on rat P2X7 and at P2X7 [2] was greater than 10000 nM in each case. The “PBMC 1 μM (% control)” value at P2X7 [1] was found to be 88.0 % control.

Take `Cn1nc2c(c1-c1cncnc1)CCN(C(=O)c1cccc(Cl)c1Cl)C2` [Example 329, (2,3-dichlorophenyl)(2-methyl-3-(pyrimidin-5-yl)-4,5-dihydro-2H-pyrazolo[3,4-c]pyridin-6(7H)-yl)methanone]: the IC50 on rat P2X7 and at P2X7 [2] was greater than 10000 nM each time. In addition, the “PBMC 1 μM (% control)” value at P2X7 [1] was determined as 99.5 % control.

As for `O=C(c1cccc(Cl)c1Cl)N1CCc2c(n[nH]c2-c2cncnc2)C1` [Example 330, (2,3-dichlorophenyl)(3-(pyrimidin-5-yl)-4,5-dihydro-2H-pyrazolo[3,4-c]pyridin-6(7H)-yl)methanone], the half-maximal inhibitory concentration (IC50) on rat P2X7 and at P2X7 [2] was greater than 10000 nM throughout. Also, the “PBMC 10 μM (% control)” value on P2X7 [1] came out at 33.8 % control.
